From patent publication US8735602B2, “Pharmaceutically acceptable salts of thymodepressin and processes for their manufacture” (Apotex Technologies inc., priority 2006, dated 2014)

Tests used:
Assay type in all cases: physicochemical
[1] = Speciation plot (FIG. 5) calculation of solution pH from experimentally determined pKas; settings: according to the speciation plot calculation
Text: A pharmaceutically acceptable salt of a drug substance is one that is chemically stable and can be used in a pharmaceutical composition. Unlike simple aromatic hydrocarbons, thymodepressin is a dipeptide with multi-functional groups. The dipeptide D-isoglutamyl-D-tryptophan has an alpha amine, two carboxylic acids and an indole nitrogen within the same molecule. An ideal salt should be one that has a solution pH close to about 7 and in the low basic pH range. Through investigations in our laboratory, in the search for a novel salt to address the shortcomings of the disodium salt of D-isoglutamyl-D-tryptophan, the speciation plot (FIG. 5) was used to determine salts with ideal solution pH and solubility that are suitable for pharmaceutical formulations. FIG. 5 is a speciation plot of H-D-iGlu-D-Trp-OH from pH 0 to 12 using experimentally determined pKas. In FIG. 5, LH2=H-D-iGlu-D-Trp-OH, LH=mono carboxylic acid salt, L=dicarboxylic acid salt, and LH3=acid addition salt of H-D-iGlu-D-Trp-OH. The X axis provides the pH of the solution, whereas the Y axis reports the amount of the species present at a particular pH. From our practical experience, we use 6 ml of water per gm of H-D-iGlu-D-Trp-OH for isolation purposes, which corresponds to a concentration of 0.5 M solution.
According to the speciation plot calculation shown in FIG. 5, the diacid form has a pH of about 2.7 to about 3 in solution. The metal salt of formula I wherein M is potassium or lithium; the divalent salt of formula II wherein B is calcium or magnesium has a solution pH close to about 7.
We have applied the speciation plot (FIG. 5) to compute the pH range of the salt forms of the dipeptide H-D-iGlu-D-Trp-OH. […] This is particular ideal for liquid formulation, sublingual tablets, nasal drops and sprays.

[2] = Percent crystallinity by X-ray powder diffraction; settings: XRPD, D8 system with 2D detector; not absolute values
Procedure: The percent crystallinity is commonly measured as a ratio between the diffraction portion from the crystalline part of the sample, Ic, and the total diffraction from the same sample, IC+B. The values of IC can be obtained after an appropriate subtraction of the scattering portion from the background, IB.
For such kind of analyses, the diffraction is measured as total area under the profile of: • the whole pattern as it is collected (one may correct for the air scattering) −ITOTAL* • the peaks only (IC) after subtraction of the background (correction for the air scattering), • the background only with correction for air scattering −(IB).
However, in this study, due to the technical problems with the D5000 point-detector diffraction system, all the samples were analyzed on a D8 system, equipped with an area, 2D detector, and the above-mentioned approach could not be applied. Therefore, another technique has been developed for measuring the crystallinity of samples analyzed on such system. Only a narrow part of the 2D diffraction image is chosen with a single peak at the centre and a neighbour area where the background will be measured.
All samples were measured for calculation of their crystallinity using a narrow range of 21°-25° with a strongest reflection at […]. The background was subtracted as linear, and an empirical correlation coefficient of 2.5 was applied.

[3] = Hygroscopicity of the freeze-dried solid in air
[4] = Stability of the solid salt
Text: It is extremely hygroscopic and very difficult to weigh for formulation research. In solution, as per the speciation plot (FIG. 5), the pH is above 9.0 and the solution pH must be adjusted to about 7.0 to about 7.4 in a formulation preparation.

Question: With `NC(=O)[C@H](N)CCC(=O)N[C@H](Cc1c[nH]c2ccccc12)C(=O)[O-].[K+]` [potassium salt of formula I, D-isoglutamyl-D-tryptophan potassium salt (1:1)] as the compound, how does the pH in solution [1] read?
Answer: The pH in solution was “about 7”.

Question: For “Calcium Salt of D-isoglutamyl-D-tryptophan (1:2) [Example 8]”, which percent crystallinity [2] is on record?
Answer: The percent crystallinity was 18-20%.

Question: With “D-isoglutamyl-D-tryptophan calcium salt (2:1) [calcium salt of formula II]” as the compound, how does the pH in solution [1] read?
Answer: Its pH in solution is “about 7”.

Question: What about the percent crystallinity [2] of the same compound?
Answer: The percent crystallinity was at most 67%.

Question: With “D-isoglutamyl-D-tryptophan magnesium salt (2:1) [magnesium salt of formula II]” as the compound, how does the pH in solution [1] read?
Answer: The pH in solution was “about 7”.

Question: With “disodium salt of D-isoglutamyl-D-tryptophan” as the compound, how does the hygroscopicity [3] read?
Answer: The hygroscopicity was “extremely hygroscopic turning into a gel in a matter of minutes in air”.

Question: What about the pH in solution [1] of the same compound?
Answer: The pH in solution was “above 9.0”.

Question: And the “stability as a solid” value [4]?
Answer: Its value is “less stable chemical entity as a solid”.
